# Test results published in patent US20220220152A1, “BIVALENT ANTAGONISTS OF INHIBITORS OF APOPTOSIS PROTEINS” (Hepagene Therapeutics (HK) Limited, priority 2019, published 2022).
# Experiments:
# [1] = biological target: T1, cIAP1-BIR3 (Homo sapiens, UniProt Q13490); assay: cIAP1-BIR3 fluorescence polarization binding assay; conditions: FP, probe AbuRPFK-5FAM (SM5F) 5 nM, cIAP1-BIR3 15 nM, 60 min at 25° C.
# T1 construct: cIAP1-BIR3; purchased Reaction Biology APT-11-370
# Outline: (§1)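 Fluorescence polarization competition using 5-carboxyfluorescein-labelled peptide probe AbuRPFK-5FAM; protein and compound preincubated 15 min, probe added, then 60 min at 25° C.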
# [2] = biological target: T2, XIAP-BIR3 (Homo sapiens, UniProt P98170); assay: XIAP-BIR3 fluorescence polarization binding assay; conditions: FP, probe AbuRPFK-5FAM (SM5F) 5 nM, XIAP-BIR3 40 nM, 60 min at 25° C.
# T2 construct: XIAP-BIR3; purchased Reaction Biology APT-11-374
# Outline: as §1
# [3] = biological target: T3, cIAP2-BIR3 (Homo sapiens, UniProt Q13489); assay: cIAP2-BIR3 fluorescence polarization binding assay; conditions: FP, probe AbuRPFK-5FAM (SM5F) 5 nM, cIAP2-BIR3 80 nM, 60 min at 25° C.
# T3 construct: cIAP2-BIR3; purchased Reaction Biology APT-11-372
# Outline: as §1
# T1 sequence (Q13490 253-363 limits assumed): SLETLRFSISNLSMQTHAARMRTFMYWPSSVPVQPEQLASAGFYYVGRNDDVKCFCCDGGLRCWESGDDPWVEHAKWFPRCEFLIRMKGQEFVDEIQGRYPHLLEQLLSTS
# T2 sequence (P98170 241-356 limits assumed): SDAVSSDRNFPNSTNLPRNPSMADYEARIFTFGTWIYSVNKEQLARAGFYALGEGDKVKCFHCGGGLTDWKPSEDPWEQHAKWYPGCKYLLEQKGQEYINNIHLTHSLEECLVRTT
# T3 sequence (Q13489 238-349 limits assumed): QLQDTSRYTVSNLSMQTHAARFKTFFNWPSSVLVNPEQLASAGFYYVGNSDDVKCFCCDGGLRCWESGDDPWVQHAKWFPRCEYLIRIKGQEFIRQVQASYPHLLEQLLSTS
IC50 [1],IC50 [2],IC50 [3],Compound
1 to 10 nM,10 to 100 nM,1 to 10 nM,"CN[C@@H](C)C(=O)N[C@H](C(=O)N1CCC[C@H]1C(=O)N[C@@H]1CCCc2c(-c3ccc(-c4cccc5c4CCC[C@H]5NC(=O)[C@@H]4CCCN4C(=O)[C@@H](NC(=O)[C@H](C)NC)C(C)(C)C)cc3)cccc21)C(C)(C)C [Compound III-J, (2S)-1-[(2S)-3,3-dimethyl-2-[(2S)-2-(methylamino)propanamido]butanoyl]-N-[(1R)-5-[4-[(5R)-5-[(2S)-[-(2S)-3,3-dimethyl-2-[(2S)-2-(methylamino)propanamido]butanoyl]pyrrolidine-2-amido]-5,6,7,8-tetrahydronaphthalen-1-yl]phenyl]-1,2,3,4-tetrahydronaphthalen-1-yl]pyrrolidine-2-carboxamide]"
1 to 10 nM,10 to 100 nM,10 to 100 nM,"CN[C@@H](C)C(=O)N[C@H](C(=O)N1CCC[C@H]1C(=O)N[C@@H]1CCOc2c(-c3cccc4c3OCC[C@H]4NC(=O)[C@@H]3CCCN3C(=O)[C@@H](NC(=O)[C@H](C)NC)C3CC3)cccc21)C1CC1 [Compound V-E, (2S)-1-[(2S)-2-cyclopropyl-2-[(2S)-2-(methylamino)propanamido]acetyl]-N-[(4R)8-[(4R)-4-[(2S)-1-[(2S)-2-cyclopropyl-2-[(2S)-2-(methylamino)propanamido]acetyl]pyrrolidine-2-amido]-3,4-dihydro-2H-1-benzopyran-8-yl]-3,4-dihydro-2H-1-benzopyran-4-yl]pyrrolidine-2-carboxamide]"
